Data as given in patent US20050101640A1 (Recordati Ireland Limited, priority 2002, published 2005).
Marks after values point to notes of the source that are not given here. Blank lines part the entries; values can stand above or below the molecule they belong to.

Experiments:
isolated rat aorta = conditions: in vitro; even after the drug has been removed for 6 hours; cited from earlier work
[1] = cited from earlier work
[2] = tested on: uninephrectomized anesthetized rats, renal ischemia/reperfusion hypertension; test: Model of acute angiotensin-mediated renal hypertension in anesthetized rats (Example I); conditions: for DBP mean change ± S.D: DBP decrease after 10 minutes from the start of drug administration, lercanidipine 10 μg/kg, lisinopril 30 μg/kg i.v. or both, Anova factorial model; for effect on systolic blood pressure and diastolic blood pressure compared to vehicle (and, for the combination, to either drug alone): lercanidipine 10 μg/kg i.v. or both; for DBP / HR / SBP: mean ± S.E.M.
Description: Male Sprague-Dawley rats, weighing 250-300 g, were anaesthetized with pentobarbital sodium (35 mg/kg, i.p.) and placed on a thermic blanket. The temperature was maintained at 37° C. with a thermoregulator via a rectal probe. The animals were tracheotomized to facilitate spontaneous breathing. A polyethylene catheter was placed in the left jugular vein to allow for infusion of pentobarbital sodium to maintain anesthesia. The left femoral vein and artery were cannulated with polyethylene catheters to allow drugs administration and to monitor blood pressure, respectively.
The animals then underwent a left nephrectomy by excising the left kidney via a flank incision. The right kidney and renal vein, artery and ureter then were exposed via a right retroperitoneal incision, under a dissecting microscope. Silk threads were positioned loosely around both vessels and ureter. The cavity was then covered with Vaseline oil.
After 30-60 minutes of basal recordings of arterial blood pressure and heart rate the threads around the renal vessels and ureter were tied close to the renal hilum to induce complete renal ischemia of the right kidney. After 2 hours of ischemia (designated as “120” in Tables 4-7), the threads were removed to allow renal reperfusion and urine output. […] To evaluate the effects of drugs administration on blood pressure and heart rate, two-way ANOVA and Dunnet's test was used.

[3] = tested on: uninephrectomized anesthetized rats, renal ischemia/reperfusion hypertension; test: Model of acute angiotensin-mediated renal hypertension in anesthetized rats (Example VI, with HCTZ); type: in vivo, Sprague-Dawley rats; conditions: for DBP / HR / SBP: mean ± S.E.M.
Description: The animals were tracheotomized to facilitate spontaneous breathing.
Silk threads were placed around both vessels and ureter. The cavity was then covered with Vaseline oil.
Results are expressed as mean values ±S.E in the tables and as mean values ±S.E. and Δ±S.E. changes in the figures.

[4] = time 0 min, basal, before ischemia and before drug
[5] = time 120 min, end of ischemia, before drug
[6] = time 125 min, 5 min after reperfusion, at drug administration (reference value)
[7] = time 130 min (5 min after i.v. drug), lisinopril 30 μg/kg, lercanidipine 10 μg/kg or both
[8] = time 135 min (10 min after i.v. drug), lisinopril 30 μg/kg, lercanidipine 10 μg/kg or both
[9] = time 150 min (25 min after i.v. drug), lisinopril 30 μg/kg, lercanidipine 10 μg/kg or both
[10] = time 165 min (40 min after i.v. drug), lisinopril 30 μg/kg, lercanidipine 10 μg/kg or both
[11] = time 180 min (55 min after i.v. drug), lisinopril 30 μg/kg, lercanidipine 10 μg/kg or both
[12] = time 130 min (5 min after i.v. drug), lisinopril+HCTZ 10+12 μg/kg, lercanidipine 7.5 μg/kg or all three
[13] = time 135 min (10 min after i.v. drug), lisinopril+HCTZ 10+12 μg/kg, lercanidipine 7.5 μg/kg or all three
[14] = time 150 min (25 min after i.v. drug), lisinopril+HCTZ 10+12 μg/kg, lercanidipine 7.5 μg/kg or all three
[15] = time 165 min (40 min after i.v. drug), lisinopril+HCTZ 10+12 μg/kg, lercanidipine 7.5 μg/kg or all three
[16] = time 180 min (55 min after i.v. drug), lisinopril+HCTZ 10+12 μg/kg, lercanidipine 7.5 μg/kg or all three

- HR [2, 4]: 359.6 ± 13.9 beats/min
- HR [2, 5]: 359.3 ± 7.8 beats/min
- HR [2, 6]: 383.6 ± 9.9 beats/min
- HR [2, 7]: 433.1 ± 8.9^b beats/min
- HR [2, 8]: 448.0 ± 6.2^b beats/min
- HR [2, 9]: 443.6 ± 8.2^b beats/min
- HR [2, 10]: 435.5 ± 11.2^b beats/min
- HR [2, 11]: 422.8 ± 12.0^b beats/min
- HR [3, 4]: 380.0 ± 17.2 beats/min
- HR [3, 5]: 376.0 ± 17.0 beats/min
- HR [3, 12]: 434.0 ± 26.9 b beats/min
- HR [3, 13]: 448.0 ± 14.4 b beats/min
- HR [3, 14]: 444.0 ± 16.1 b beats/min
- HR [3, 15]: 442.0 ± 20.4 b beats/min
- HR [3, 16]: 434.0 ± 20.9 b beats/min
Compound: COC(=O)C1=C(C)NC(C)=C(C(=O)OC(C)(C)CN(C)CCC(c2ccccc2)c2ccccc2)C1c1cccc([N+](=O)[O-])c1 (centres unmarked) [lercanidipine, methyl 1,1,N-trimethyl-N-(3,3-diphenylpropyl)-2-aminoethyl 1,4-dihydro-2,6-dimethyl-4-(3-nitrophenyl)pyridine-3,5-dicarboxylate]
- isolated rat aorta response to high K+ (isolated rat aorta): attenuated
- elimination route ([1]; in vivo): essentially via the hepatic route
- time of peak plasma levels following dosing ([1]; unmodified release oral dosage form): 2 to 3 h
- DBP mean change ± S.D [2]: 26.13 ± 8.68^a
- effect on systolic blood pressure and diastolic blood pressure compared to vehicle (and, for the combination, to either drug alone) ([2]; lisinopril 30 μg/kg): significant decreases
- DBP [2, 4]: 69.8 ± 2.5 mmHg
- SBP [2, 4]: 110.4 ± 3.6 mmHg
- DBP [2, 5]: 70.6 ± 5.4 mmHg
- SBP [2, 5]: 114.5 ± 6.5 mmHg
- DBP [2, 6]: 119.3 ± 5.2 mmHg
- SBP [2, 6]: 167.6 ± 8.9 mmHg
- DBP [2, 7]: 97.1 ± 3.1^b mmHg
- SBP [2, 7]: 140.4 ± 3.8^b mmHg
- DBP [2, 8]: 93.1 ± 4.0^b mmHg
- SBP [2, 8]: 140.5 ± 3.7^b mmHg
- DBP [2, 9]: 89.5 ± 4.3^b mmHg
- SBP [2, 9]: 139.4 ± 3.7^b mmHg
- DBP [2, 10]: 83.5 ± 4.6^b mmHg
- SBP [2, 10]: 132.0 ± 5.3^b mmHg
- DBP [2, 11]: 78.8 ± 4.0^b mmHg
- SBP [2, 11]: 128.1 ± 4.7^b mmHg
- effect on blood pressure (in words) ([3]; i.v. at peak of reperfusion hypertension, lisinopril+HCTZ 10+12 μg/kg, lercanidipine 7.5 μg/kg or all three): statistically significant decrease in diastolic blood pressure
- effect on heart rate (in words) ([3]; lisinopril+HCTZ 10+12 μg/kg, lercanidipine 7.5 μg/kg i.v. or all three): positive chronotropic effect
- DBP [3, 4]: 82.7 ± 2.7 mmHg
- SBP [3, 4]: 115.0 ± 3.1 mmHg
- DBP [3, 5]: 65.8 ± 4.6 mmHg
- SBP [3, 5]: 103.8 ± 6.4 mmHg
- DBP [3, 6]: 107.0 ± 4.0 mmHg
- SBP [3, 6]: 138.0 ± 4.6 mmHg
- DBP [3, 12]: 87.0 ± 4.3 b mmHg
- SBP [3, 12]: 123.7 ± 3.2 mmHg
- DBP [3, 13]: 86.7 ± 5.0 b mmHg
- SBP [3, 13]: 121.7 ± 4.9 mmHg
- DBP [3, 14]: 86.0 ± 8.2 b mmHg
- SBP [3, 14]: 121.0 ± 7.0 mmHg
- DBP [3, 15]: 78.0 ± 7.6 b mmHg
- SBP [3, 15]: 112.3 ± 6.1 b mmHg
- DBP [3, 16]: 66.3 ± 8.0 b mmHg
- SBP [3, 16]: 99.8 ± 7.2 b mmHg

- HR [2, 4]: 393.3 ± 8.8 beats/min
- HR [2, 5]: 390.3 ± 10.0 beats/min
- HR [2, 7]: 408.3 ± 12.3 beats/min
- HR [2, 8]: 405.8 ± 9.7 beats/min
- HR [2, 9]: 406.7 ± 13.1 beats/min
- HR [2, 10]: 406.7 ± 18.2 beats/min
- HR [2, 11]: 400.0 ± 14.6 beats/min
Compound: NCCCC[C@H](N[C@@H](CCc1ccccc1)C(=O)O)C(=O)N1CCC[C@H]1C(=O)O [lisinopril]
- time of peak serum concentrations ([1]; following oral administration): ≤ 7 h
- DBP mean change ± S.D [2]: 26.83 ± 4.40^a
- effect on systolic blood pressure and diastolic blood pressure compared to vehicle (and, for the combination, to either drug alone) ([2]; lisinopril 30 μg/kg): significant decreases
- DBP [2, 4]: 73.3 ± 3.2 mmHg
- SBP [2, 4]: 104.2 ± 3.0 mmHg
- DBP [2, 5]: 68.3 ± 2.3 mmHg
- SBP [2, 5]: 99.3 ± 2.4 mmHg
- DBP [2, 6]: 117.3 ± 1.3 mmHg
- SBP [2, 6]: 154.3 ± 3.6 mmHg
- DBP [2, 7]: 92.5 ± 1.0^b mmHg
- SBP [2, 7]: 120.7 ± 1.7^b mmHg
- DBP [2, 8]: 90.5 ± 1.2^b mmHg
- SBP [2, 8]: 119.0 ± 2.1^b mmHg
- DBP [2, 9]: 77.7 ± 4.1^b mmHg
- SBP [2, 9]: 111.0 ± 4.0^b mmHg
- DBP [2, 10]: 64.0 ± 4.8^b mmHg
- SBP [2, 10]: 96.0 ± 6.0^b mmHg
- DBP [2, 11]: 57.3 ± 5.1^b mmHg
- SBP [2, 11]: 90.2 ± 6.8^b mmHg
